According to patent US7998460B2, “Prevention of deficits in neurogenesis with anti-inflammatory agents” (The Board of Trustees of the Leland Stanford Junior …, priority 2003, dated 2011):
Entries after “also recorded” stand apart in the source; their conditions may differ.

Experiments:
[1] = Sickness behavior and weight loss after LPS in mice; type: in vivo, mouse; settings: for effect of NSAID on LPS-induced sickness behavior and weight loss: oral NSAID course
Excerpt: LPS-induced transient illness is associated with mild but persistent memory impairment. Hippocampal neurogenesis, a phenomenon that persists throughout life in men and mice alike, has been linked to learning and memory by several groups. Manipulations that chronically deplete hippocampal neurogenesis produce concomitant impairments in cognition, particularly hippocampus-dependent memory. […] To determine whether LPS-induced illness affects learning and/or memory during either the acute recovery phase or in asymptomatic mice, a single 0 or 5 mg/kg injection of LPS was administered with daily subcutaneous saline injections over 4 days to maintain hydration and their behavior examined in locomotor chambers and/or the Morris water maze task either in the week following treatment or beginning 4 weeks after treatment when the decrease in net neurogenesis is most apparent.
Subjects. All mice used as subjects in this study were treated in accordance with the policies set forth by the Stanford Animal Care and Use Committee and NIH regarding the ethical use of animals for experimentation. CB57BI/6 mice (7 wks old upon arrival from -Taconic) were housed in groups of 4-5 in autoclaved shoebox cages under standard conditions and were given free access to autoclaved Prolab Mouse 3000 chow (PMI Nutrition International, St. Louis, Mo.) and autoclaved tap water. […] Louis, Mo.) to induce transient illness (Day 0) and daily subcutaneous (s.c.) isotonic saline (0.5 ml) injections (Days 0-3) to prevent illness-induced dehydration. The cell synthesis marker bromodeoxyuridine (BrdU; Sigma Aldrich, St. Louis, Mo.) was injected i.p. (50 mg/kg at a concentration of 10 mg/ml in freshly prepared isotonic saline) once per day for 6 days to label dividing cells, beginning Day 0 (2 h after LPS). The mice were anesthetized with ketamine/xylazine and killed at Days 7 or 28 (to assess hippocampal neurogenesis during illness and just before behavioral testing, respectively) or Day 80 (to measure hippocampal neurogenesis following behavioural testing) by perfusion with 4% paraformaldehyde. Brains were post-fixed overnight in perfusate, microtome sectioned at 40 μm through the hippocampus and stored in tissue cryoprotectant solution at −20° C. until processed immunohistochemically.

adult rats = experiment: Barnes maze after LPS; type: in vivo, rat
Excerpt: LPS-induced inflammatory response impairs performance in the Barnes maze. It has been reported previously that irradiation and LPS-induced inflammation impair performance in hippocampus-dependent spatial tasks. The present studies confirm that LPS treatment impaired recall of a goal position learned prior to LPS treatment. The Barnes maze is a 6-foot diameter bright white platform with 8 escape boxes under holes in the rim of the platform. All escape holes are blocked except one and the rat is initially placed in the goal box for familiarization. The rat is then placed in the center of the maze and is allowed to find its way back to the goal box to escape the aversive brightly lit platform. Learning is seen as a decrease in the distance traveled to reach the goal box with consecutive trials on a given day and in repeat sessions on sequential days. One measure of recall is to determine distance traveled when the animal is tested on the same task after a time delay or after experimental treatments.
To determine if there were differences in recall following LPS treatment, animals were trained on the Barnes maze for 5 consecutive days prior to LPS treatment. LPS was given on day 0 and animals tested for recall on day 7. Low-dose intraperitoneal LPS treatment makes animals feel mildly ill and they will reduce their water and food intake for a period of one or two days. There is a temporary weight loss that is fully recovered by day 7.
Animals were weighed daily and after 7 days tested for memory retention on the Barnes maze. On days 8-11, animals were re-trained for their ability to learn the position of a new goal box in the Barnes maze. Animals were then tested on day 14 for the ability to remember the position of the second goal box. LPS caused a ˜14% increase in the distance traveled to the goal box learned prior to LPS treatment, indicating impaired spatial memory. LPS caused a significant increase (˜28%) in the distance traveled during day 8 trials used to learn the position of the new goal box (indicating impaired spatial learning) but all animals eventually learned the position of the goal box by day 11 (no difference in distance traveled between LPS and control groups).

hippocampal neurogenesis = experiment: Oral NSAID course and LPS challenge, hippocampal neurogenesis at day 28 in mice; type: in vivo, mouse; settings: oral NSAID course, LPS 5 mg/kg
Description: Mice were started on a 16 day preventative course of oral NSAID and then challenged with a single IP injection of LPS (5 mg/kg) and then BrdU (50 mg/kg) over 6 days beginning 2 h after LPS. The mice were either perfused 28 days after LPS injection, or trained and tested in the Morris water maze.
Subjects. All mice used as subjects in this study were treated in accordance with the policies set forth by the Stanford Animal Care and Use Committee and NIH regarding the ethical use of animals for experimentation. CB57BI/6 mice (7 wks old upon arrival from -Taconic) were housed in groups of 4-5 in autoclaved shoebox cages under standard conditions and were given free access to autoclaved Prolab Mouse 3000 chow (PMI Nutrition International, St. Louis, Mo.) and autoclaved tap water. One week after arrival, vehicle- and NSAID-treated mice were given an intraperitoneal (i.p.) injection of sterile saline or lipopolysaccharide (LPS; 5 mg/kg at a concentration of 1 mg/ml isotonic saline; Sigma Aldrich, St. Louis, Mo.) to induce transient illness (Day 0) and daily subcutaneous (s.c.) isotonic saline (0.5 ml) injections (Days 0-3) to prevent illness-induced dehydration. The cell synthesis marker bromodeoxyuridine (BrdU; Sigma Aldrich, St. Louis, Mo.) was injected i.p. (50 mg/kg at a concentration of 10 mg/ml in freshly prepared isotonic saline) once per day for 6 days to label dividing cells, beginning Day 0 (2 h after LPS). The mice were anesthetized with ketamine/xylazine and killed at Days 7 or 28 (to assess hippocampal neurogenesis during illness and just before behavioral testing, respectively) or Day 80 (to measure hippocampal neurogenesis following behavioural testing) by perfusion with 4% paraformaldehyde. Brains were post-fixed overnight in perfusate, microtome sectioned at 40 μm through the hippocampus and stored in tissue cryoprotectant solution at −20° C. until processed immunohistochemically.
NSAID treatment. […]

| Compound | days to recovery of body weight ([1]; LPS 5 mg/kg) | days to recovery of body weight ([1]; LPS 7.5 mg/kg) | days to recovery of body weight ([1]; LPS 10 mg/kg) | onset of sickness behavior (hunching, piloerection, sweaty fur) ([1]; after LPS injection) | day by which weight loss is fully restored ([1]; lowest LPS dose tested) | loss of body weight ([1]; lowest LPS dose tested (titration 5-10 mg/kg)) | loss of body mass ([1]; within 2 d following LPS injection) | increase in distance traveled to the goal box learned prior to LPS treatment (adult rats; day 7 after LPS, memory retention) | increase in distance traveled during day 8 trials to learn the new goal box (adult rats; day 8 after LPS, spatial learning) | effect on LPS-induced deficit in fraction of newborn cells adopting a neuronal fate (DCX and/or NeuN) by Day 28 (hippocampal neurogenesis) | effect on LPS-induced reduction of transition state and mature neurons (hippocampal neurogenesis; Day 28) | effect of NSAID on LPS-induced sickness behavior and weight loss ([1]; LPS 5 mg/kg) | effect of NSAID on LPS-induced sickness behavior and weight loss ([1]; LPS 5 mg/kg, listed as Indomethacin) | learning and memory, drug alone by intraperitoneal injection (adult rats; indomethacin 2.5 mg/kg twice daily i.p., no LPS) | learning and memory, oral drug alone (adult rats; indomethacin 2.5 mg/kg twice daily oral, no LPS) | effect on LPS effects on memory retention and learning of second goal box (adult rats; oral indomethacin 2.5 mg/kg twice daily with LPS) |
| --- | --- | --- | --- | --- | --- | --- | --- | --- | --- | --- | --- | --- | --- | --- | --- | --- |
| lipopolysaccharide [LPS] | 4 days | 5 days | 6 days | 1 to 2 h | ≤ 6 days | roughly 20% | approximately 10% | ~14% | ~28% | – | – | – | – | – | – | – |
| COc1ccc2c(c1)c(CC(=O)O)c(C)n2C(=O)c1ccc(Cl)cc1 [indomethacin] | – | – | – | – | – | – | – | – | – | attenuated, but did not completely reverse this deficit; also recorded: attenuated this deficit | partially reversed the effects of LPS | not significantly attenuated | not significantly affected | perform more poorly in all tasks at all time points | no measurable effects | completely reverse |
